Source: US6653290B2, “Tumor proliferation inhibitors” (Bristol-Myers Squibb Company, priority 2000, dated 2003)

Legend:
[1] = molecular target: T1, purified human topoisomerase I (Homo sapiens, UniProt P11387); experiment: Topoisomerase I activity (in vitro): compound-induced, topoisomerase I-mediated single strand breaks in PM2 DNA; assay type: biochemical; conditions: purified human topoisomerase I (Topogen), 30 minutes at 37° C., read-out: EC50 (median effective concentration for inducing topoisomerase I-mediated single strand breaks in DNA)
T1 construct: purchased Topogen
T1 sequence (P11387 1-765): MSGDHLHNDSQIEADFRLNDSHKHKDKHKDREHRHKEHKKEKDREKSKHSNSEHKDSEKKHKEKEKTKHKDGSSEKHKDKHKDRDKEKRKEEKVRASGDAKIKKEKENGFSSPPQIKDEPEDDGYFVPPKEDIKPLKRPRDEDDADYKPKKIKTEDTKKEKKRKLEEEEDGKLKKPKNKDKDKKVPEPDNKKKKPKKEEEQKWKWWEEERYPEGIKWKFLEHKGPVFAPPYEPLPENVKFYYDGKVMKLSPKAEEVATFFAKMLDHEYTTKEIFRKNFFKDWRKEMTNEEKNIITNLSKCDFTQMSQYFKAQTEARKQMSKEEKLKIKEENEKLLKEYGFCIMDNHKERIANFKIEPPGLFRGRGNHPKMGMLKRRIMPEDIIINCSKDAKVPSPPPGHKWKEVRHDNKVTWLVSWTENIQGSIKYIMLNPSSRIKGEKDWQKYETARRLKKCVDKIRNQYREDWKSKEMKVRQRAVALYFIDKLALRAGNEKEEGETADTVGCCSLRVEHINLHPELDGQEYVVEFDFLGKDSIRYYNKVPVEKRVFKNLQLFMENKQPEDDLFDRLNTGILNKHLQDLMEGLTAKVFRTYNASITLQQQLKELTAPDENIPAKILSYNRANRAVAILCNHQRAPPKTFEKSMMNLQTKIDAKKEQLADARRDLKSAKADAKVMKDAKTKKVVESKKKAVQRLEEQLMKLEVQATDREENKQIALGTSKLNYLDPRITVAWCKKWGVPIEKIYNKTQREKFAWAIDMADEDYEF
Description: Topoisomerase I activity was measured as described below. The procedure for assaying compound-induced, topoisomerase I-mediated single strand breaks in DNA was essentially that described by Hsiang, et al., (J. Biol. Chem. 1985, 260,14873-14878). Samples dissolved in 100% DMSO as either 10 μM or 10 mg/ml solutions, unless otherwise stated, were diluted in Tris-EDTA buffer. Marine bacteriophage PM2 DNA (Boehringer Mannheim) was also diluted in Tris-EDTA buffer to a concentration of 0.02 μg/μl. Different dilutions of compound being evaluated were mixed with diluted DNA and this mixture was added to 1000 unit (one unit of enzyme activity is defined as the amount capable of relaxing 100 ng of supercoiled DNA in approximately 30 minutes at 37° C.) aliquots of purified human topoisomerase I (Topogen) in 2×reaction buffer to start the reaction. The compound—DNA—enzyme mixture was incubated for 30 minutes at 37° C. before stopping the reaction with warm stop buffer containing sodium dodecyl sulfate and proteinase K (Sigma). These mixtures were allowed to incubate at 37° C. for another 10 minutes, at which time the mixtures were removed from the waterbath and extracted with a 24:1 mixture of chloroform/isoamyl alcohol. Following centrifugation, aliquots of the aqueous phases were placed in wells of a 0.9% agarose (SeaKem) gel in Tris-borate buffer containing 0.5 μg/ml of ethidium bromide and subjected to electrophoresis for 15 hours to separate the different topological isomers and nicked and broken DNAs. After destaining the gel in water, the ethidium bromide stained DNA reaction products were visualized by exposing the gel to UV irradiation. Negatives of photographs of the irradiated gels were scanned with a densitometer and areas under the peaks were calculated in order to obtain percent single strand DNA break formation for each sample. A median effective concentration (EC50) was obtained for each compound by interpolation between points of the resulting dose-effect curve which defines the potency of the compound for its effect in inducing topoisomerase I-mediated single strand breaks in DNA. The topoisomerase I activity for selected compounds of the present invention is shown below in Table I.

[2] = tested on: murine P388 cell line; experiment: Cell-based cytotoxicity (XTT proliferation inhibition) against murine P388 cell line; conditions: Mus musculus, P388 cells, 72 h incubation, absorbance at 450 nm, read-out: IC50 (drug concentration required to inhibit cell proliferation to 50% of untreated control cells)
Description: The proliferation inhibition activity against murine P388 cell line was measured as follows. Evaluation of a soluble tetrazolium/formazan assay for cell growth and drug sensitivity in culture, using human and other tumor cell lines, was done according to the procedure described in Cancer Res. 1988, 48, 4827-4833. Cells were plated at 4000 cells/well in 96 well microtiter plates and 24 h later drugs were added and serially diluted. The cells were incubated at 37° C. for 72 h, at which time a tetrazolium dye, XTT, containing phenazine methosulfate was added. A dehydrogenase enzyme in live cells reduced the XTT to a form that absorbs light at 450 nm, which could be quantitated spectrophotometrically. The greater the absorbance the greater the number of live cells. The results are expressed as an IC50, which is the drug concentration required to inhibit cell proliferation (i.e., absorbance at 450 nm) to 50% of that of untreated control cells.

With `CO[C@@]1(C)C[C@H](O)[C@@H](O)[C@H](n2c3cc(F)c(F)cc3c3c4c(c5c6cc(F)c(F)cc6[nH]c5c32)C(=O)NC4=O)O1` [Example 6, 2 , 3,9, 10-Tetrafluoro-12-(4,6-dideoxy-5-methoxy-β-D-glucopyranosyl) -6,7, 12, 13-tetrahydro(5H)indolo[2,3-a]pyrrolo[3,4-c]carbazole-5,7-dione] the EC50 [1] was 0.07 µM and the IC50 [2] was 0.05 µM.
For `CO[C@@]1(CO)C[C@H](O)[C@@H](O)[C@H](n2c3cc(F)c(F)cc3c3c4c(c5c6cc(F)c(F)cc6[nH]c5c32)C(=O)NC4=O)O1` [Example 8, 2,3,9, 10-Tetrafluoro-12-(4-deoxy-5-methoxy-β-D-glucopyranosyl) -6,7, 12, 13-tetrahydro(5H)indolo[2,3-a]pyrrolo[3,4-c]carbazole-5,7-dione], the EC50 [1] was 0.05 µM and the IC50 [2] was 0.035 µM.
`CCOC1(C)CC(O)C(O)C(n2c3ccc(F)cc3c3c4c(c5c6cc(F)ccc6[nH]c5c32)C(=O)NC4=O)O1` [Example 10, 3,9-Difluoro-12-(4,6-dideoxy-5-ethoxy-6-D-glucopyranosyl)-6,7, 12, 13-tetrahydro(5H)indolo[2,3-a]pyrrolo[3,4-c]carbazole-5,7-dione] was tested, and the IC50 [2] was 0.055 µM.
Compound `COC1(C)CC(O)C(O)C(n2c3cc(F)c(F)cc3c3c4c(c5c6cc(F)c(F)cc6sc5c32)C(=O)NC4=O)O1` [Example 12, 2,3,9, 10-Tetrafluoro-12-(4,6-dideoxy-5-methoxy-δ-D-glucopyranosyl)-6,7, 12, 13-tetrahydro(5H)benzo[b]thieno[2,3-a]pyrrolo[3,4-c]carbazole-5,7-dione] has an IC50 [2] of 0.069 µM.
`CC(C)OC1(C)CC(O)C(O)C(n2c3ccc(F)cc3c3c4c(c5c6cc(F)ccc6[nH]c5c32)C(=O)NC4=O)O1` [Example 11, 3,9-Difluoro-12-(4,6-dideoxy-5-isopropoxy-δ-D-glucopyranosyl)-6,7, 12, 13-tetrahydro(5H)indolo[2,3-a]pyrrolo[3,4-c]carbazole-5,7-dione] showed an IC50 [2] of 0.2 µM.
In the case of `CO[C@@]1(C)C[C@H](O)[C@@H](O)[C@H](n2c3ccc(F)cc3c3c4c(c5c6cc(F)ccc6[nH]c5c32)C(=O)NC4=O)O1` [Example 9, 3,9-Difluoro-12-(4,6-dideoxy-5-methoxy-β-D-glucopyranosyl)-6,7, 12, 13-tetrahydro(5H)indolo[2,3-a]pyrrolo[3,4-c]carbazole-5,7-dione], the IC50 [2] is reported as 0.007 µM.
Compound `O=C1NC(=O)c2c1c1c3cc(F)c(F)cc3[nH]c1c1c2c2cc(F)c(F)cc2n1[C@@H]1OC(CO)(CO)C[C@H](O)[C@H]1O` [Example 1, 2,3,9, 10-Tetrafluoro-12-[5-C-(hydroxymethyl)-4-deoxy-β-D-glucopyranosyl]-indolo[2,3-a]pyrrolo[3,4-c]carbazole-5,7-dione] has an EC50 [1] of 0.04 µM and an IC50 [2] of 0.035 µM.
`CO[C@]1(CO)O[C@@H](n2c3cc(F)c(F)cc3c3c4c(c5c6cc(F)c(F)cc6[nH]c5c32)C(=O)NC4=O)[C@H](O)[C@@H](O)[C@@H]1O` [Example 7, 2,3,9, 10-Tetrafluoro-12-(5-methoxy-β-D-glucopyranosyl)-6,7, 12, 13-tetrahydro(5H)indolo[2,3-a]pyrrolo[3,4-c]carbazole-5,7-dione] was tested, and the EC50 [1] was 0.27 µM and the IC50 [2] was 0.25 µM.
